# Test results from ChEMBL document CHEMBL1201862, “PubChem BioAssay data set” (2004).
#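 Each compound was tested at five concentrations against cells in 96-well plates for 48 hours. GI50: concentration for 50% inhibition of growth.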 Activity calls are given as the source filed them. No stated cut-off is given here; in the data, active = GI50 up to about 1.1 µM and inactive = higher.
# Legend:
# Experiment in all cases: NCI-60 cell line screen, 48 h
# 786-0 = tested on: 786-0
# A498 = tested on: A498
# A549 = tested on: A549
# ACHN = tested on: ACHN
# BT-549 = tested on: BT-549
# CAKI-1 = tested on: CAKI-1
# CCRF-CEM = tested on: CCRF-CEM
# COLO 205 = tested on: COLO 205
# DMS-114 = tested on: DMS-114
# DU-145 = tested on: DU-145
# EKVX = tested on: EKVX
# HCC 2998 = tested on: HCC 2998
# HCT-116 = tested on: HCT-116
# HCT-15 = tested on: HCT-15
# HL-60 = tested on: HL-60
# HOP-62 = tested on: HOP-62
# HOP-92 = tested on: HOP-92
# HT-29 = tested on: HT-29
# Hs-578T = tested on: Hs-578T
# IGROV-1 = tested on: IGROV-1
# K562 = tested on: K562
# KM-20L2 = tested on: KM-20L2
# KM12 = tested on: KM12
# LOX IMVI = tested on: LOX IMVI
# LXFL 529 = tested on: LXFL 529
# M14 = tested on: M14
# M19-MEL = tested on: M19-MEL
# MCF7 = tested on: MCF7
# MDA-MB-231 = tested on: MDA-MB-231
# MDA-MB-435 = tested on: MDA-MB-435
# MDA-N = tested on: MDA-N
# MOLT-4 = tested on: MOLT-4
# Malme-3M = tested on: Malme-3M
# NCI-H226 = tested on: NCI-H226
# NCI-H23 = tested on: NCI-H23
# NCI-H460 = tested on: NCI-H460
# NCI-H522 = tested on: NCI-H522
# NCI/ADR-RES = tested on: NCI/ADR-RES
# OVCAR-3 = tested on: OVCAR-3
# OVCAR-4 = tested on: OVCAR-4
# OVCAR-5 = tested on: OVCAR-5
# OVCAR-8 = tested on: OVCAR-8
# PC-3 = tested on: PC-3
# RPMI-8226 = tested on: RPMI-8226
# RXF 393 = tested on: RXF 393
# SF-268 = tested on: SF-268
# SF-295 = tested on: SF-295
# SF-539 = tested on: SF-539
# SK-MEL-28 = tested on: SK-MEL-28
# SK-MEL-2 = tested on: SK-MEL-2
# SK-MEL-5 = tested on: SK-MEL-5
# SK-OV-3 = tested on: SK-OV-3
# SN12C = tested on: SN12C
# SNB-19 = tested on: SNB-19
# SNB-75 = tested on: SNB-75
# SNB-78 = tested on: SNB-78
# SR = tested on: SR
# SW-620 = tested on: SW-620
# T47D = tested on: T47D
# TK-10 = tested on: TK-10
# U-251 = tested on: U-251
# UACC-257 = tested on: UACC-257
# UACC-62 = tested on: UACC-62
# UO-31 = tested on: UO-31
# XF498 = tested on: XF498
smiles,measurement,setting,value
CC1=NN(C(=O)c2ccccc2O)C(=O)/C1=C/c1c(O)ccc2ccccc12,GI50,786-0,316 nM (active)
same,GI50,A498,2440 nM (inactive)
same,GI50,A549,2060 nM (inactive)
same,GI50,ACHN,955 nM (active)
same,GI50,BT-549,4700 nM (inactive)
same,GI50,CAKI-1,1320 nM (inactive)
same,GI50,CCRF-CEM,312 nM (active)
same,GI50,COLO 205,2900 nM (inactive)
same,GI50,DMS-114,219 nM (active)
same,GI50,DU-145,607 nM (active)
same,GI50,EKVX,713 nM (active)
same,GI50,HCC 2998,12900 nM (inactive)
same,GI50,HCT-116,689 nM (active)
same,GI50,HCT-15,480 nM
same,GI50,HL-60,299 nM (active)
same,GI50,HOP-62,944 nM (active)
same,GI50,HOP-92,1960 nM (inactive)
same,GI50,HT-29,10200 nM (inactive)
same,GI50,Hs-578T,21400 nM (inactive)
same,GI50,IGROV-1,1220 nM (inactive)
same,GI50,K562,1730 nM (inactive)
same,GI50,KM-20L2,4590 nM (inactive)
same,GI50,KM12,2780 nM (inactive)
same,GI50,LOX IMVI,625 nM (active)
same,GI50,LXFL 529,1720 nM (inactive)
same,GI50,M14,587 nM (active)
same,GI50,M19-MEL,460 nM (active)
same,GI50,MCF7,3310 nM (inactive)
same,GI50,MDA-MB-231,3970 nM (inactive)
same,GI50,MDA-MB-435,4940 nM (inactive)
same,GI50,MDA-N,5200 nM (inactive)
same,GI50,MOLT-4,1800 nM (inactive)
same,GI50,Malme-3M,1520 nM (inactive)
same,GI50,NCI-H226,1530 nM (inactive)
same,GI50,NCI-H23,1430 nM (inactive)
same,GI50,NCI-H460,676 nM (active)
same,GI50,NCI-H522,839 nM (active)
same,GI50,NCI/ADR-RES,1340 nM (inactive)
same,GI50,OVCAR-3,201 nM (active)
same,GI50,OVCAR-4,468 nM (active)
same,GI50,OVCAR-5,4110 nM (inactive)
same,GI50,OVCAR-8,1010 nM (active)
same,GI50,PC-3,2030 nM (inactive)
same,GI50,RPMI-8226,1460 nM (inactive)
same,GI50,RXF 393,787 nM (active)
same,GI50,SF-268,723 nM (active)
same,GI50,SF-295,2230 nM (inactive)
same,GI50,SF-539,804 nM (active)
same,GI50,SK-MEL-28,1690 nM (inactive)
same,GI50,SK-MEL-2,1140 nM (inactive)
same,GI50,SK-MEL-5,1190 nM (inactive)
same,GI50,SK-OV-3,741 nM (active)
same,GI50,SN12C,1220 nM (inactive)
same,GI50,SNB-19,3260 nM (inactive)
same,GI50,SNB-75,2420 nM (inactive)
same,GI50,SNB-78,26600 nM (inactive)
same,GI50,SR,364 nM (active)
same,GI50,SW-620,863 nM (active)
same,GI50,T47D,41100 nM (inactive)
same,GI50,TK-10,8870 nM (inactive)
same,GI50,U-251,982 nM (active)
same,GI50,UACC-257,2470 nM (inactive)
same,GI50,UACC-62,287 nM (active)
same,GI50,UO-31,968 nM (active)
same,GI50,XF498,4860 nM (inactive)
